Laboratory results taken from PubChem BioAssay (NCI).
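Values below derive from 48-hour exposures of cells grown in 96-well plates, with endpoints linearly interpolated between the two concentrations bracketing the appropriate inhibition level. TGI: total growth inhibition.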

Legend:
Experiment in all cases: NCI anticancer screen, dose series, 48 h
LOX IMVI melanoma = test system: LOX IMVI melanoma
BT-549 breast = test system: BT-549 breast
MDA-N = test system: MDA-N
UACC-62 melanoma = test system: UACC-62 melanoma
NCI-H226 lung = test system: NCI-H226 lung
UO-31 renal = test system: UO-31 renal
SR leukemia = test system: SR leukemia
ACHN renal = test system: ACHN renal
SK-MEL-5 melanoma = test system: SK-MEL-5 melanoma
SF-295 CNS = test system: SF-295 CNS
T-47D breast = test system: T-47D breast
COLO 205 colon = test system: COLO 205 colon
A498 renal = test system: A498 renal
OVCAR-4 ovarian = test system: OVCAR-4 ovarian

SMILES | TGI (LOX IMVI melanoma) | TGI (BT-549 breast) | TGI (MDA-N) | TGI (UACC-62 melanoma) | TGI (NCI-H226 lung) | TGI (UO-31 renal) | TGI (SR leukemia) | TGI (ACHN renal) | TGI (SK-MEL-5 melanoma) | TGI (SF-295 CNS) | TGI (T-47D breast) | TGI (COLO 205 colon) | TGI (A498 renal) | TGI (OVCAR-4 ovarian)
Cc1ccc(C(=O)Nc2ccc(S(=O)(=O)O)c3cc(S(=O)(=O)O)cc(S(=O)(=O)O)c23)cc1NC(=O)c1cccc(NC(=O)Nc2cccc(C(=O)Nc3cc(C(=O)Nc4ccc(S(=O)(=O)O)c5cc(S(=O)(=O)O)cc(S(=O)(=O)O)c45)ccc3C)c2)c1 | > 100 µM | > 100 µM | > 100 µM | > 100 µM | > 89.4 µM | 87.3 µM | > 100 µM | > 100 µM | > 100 µM | > 100 µM | > 100 µM | > 100 µM | > 100 µM | > 100 µM
O=C1/C(=C/c2cccc([N+](=O)[O-])c2)N=C(c2ccccc2)N1c1nc2ccc(Sc3ccccc3)cc2[nH]1 | > 100 µM | > 100 µM | 33.3 µM | > 100 µM | > 100 µM | > 100 µM | > 100 µM | > 100 µM | > 100 µM | > 100 µM | > 100 µM | 96.8 µM | > 100 µM | > 100 µM
COc1cc(/C=C2\C(=O)N(c3cccc(NC(C)=O)c3)C(c3ccccc3)S2(=O)=O)cc(OC)c1OC (configuration not stated) | > 100 µM | > 100 µM | > 100 µM | > 100 µM | > 100 µM | > 100 µM | > 100 µM | > 100 µM | > 100 µM | > 100 µM | > 100 µM | > 100 µM | > 100 µM | > 100 µM
O=C(CCCc1cccc2[nH]c3c(c12)CN(Cc1ccccc1)CC3)c1ccc(F)cc1 | > 100 µM | > 100 µM | > 100 µM | > 100 µM | > 100 µM | > 100 µM | > 100 µM | > 100 µM | 45.8 µM | > 100 µM | > 58.7 µM | 31.4 µM | > 100 µM | > 100 µM
CN1C/C(=C\c2cccs2)C2=NN(c3ccccc3)C(c3cccs3)C2C1 (configuration not stated) | > 100 µM | > 100 µM | 3.99 µM | > 100 µM | > 100 µM | > 100 µM | > 100 µM | > 100 µM | > 100 µM | > 80.3 µM | 96.3 µM | > 100 µM | > 90.2 µM | > 100 µM
CCOC(CBr)OC1C(=O)OCC1(C)C (configuration not stated) | > 100 µM | > 100 µM | > 100 µM | > 100 µM | > 100 µM | > 100 µM | > 100 µM | > 100 µM | > 100 µM | > 100 µM | > 100 µM | > 100 µM | > 100 µM | > 100 µM
COc1ccc(SCc2cc(OC)ccc2OC)cc1 | > 100 µM | > 74.3 µM | 32.7 µM | > 100 µM | > 100 µM | > 100 µM | > 100 µM | > 100 µM | 98.9 µM | > 100 µM | > 100 µM | > 61 µM | > 87.1 µM | > 100 µM
CC(=O)C1=C(C)N(c2ccccc2)C2(O)C3=C(C(=O)c4ccccc4C3=O)C(O)=CC12Cl (configuration not stated) | > 100 µM | 30.3 µM | 6.88 µM | 73.9 µM | 55.7 µM | 26.7 µM | 12.3 µM | 33.2 µM | 9.04 µM | 40.6 µM | > 100 µM | > 100 µM | 30.5 µM | 14.5 µM
